# Test results: PubChem BioAssay (NCI)
#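 Results reflect a 48-hour exposure of cells in 96-well plates to compound at five concentrations. GI50 is the concentration that inhibits growth by half. Definition used: TGI = concentration required for complete inhibition of growth.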
# Assays:
# Assay in all cases: NCI tumour cell line growth inhibition, 48 h
# [1] = tested on: HL-60(TB) leukemia
# [2] = tested on: 786-0 renal
# [3] = tested on: SNB-19 CNS
# [4] = tested on: CAKI-1 renal
# [5] = tested on: BT-549 breast
# [6] = tested on: OVCAR-3 ovarian
# [7] = tested on: SK-OV-3 ovarian
# [8] = tested on: UACC-257 melanoma
# [9] = tested on: SF-539 CNS
# [10] = tested on: NCI-H23 lung
# [11] = tested on: U251 CNS
# [12] = tested on: HCT-116 colon
# [13] = tested on: HCC-2998 colon
# [14] = tested on: LOX IMVI melanoma
# [15] = tested on: MOLT-4 leukemia
# [16] = tested on: SW-620 colon
# [17] = tested on: K-562 leukemia
# [18] = tested on: UACC-62 melanoma
# [19] = tested on: SF-295 CNS
# [20] = tested on: RXF 393 renal
# [21] = tested on: SK-MEL-5 melanoma
# [22] = tested on: KM12 colon
# [23] = tested on: PC-3 prostate
# [24] = tested on: MDA-MB-435
# [25] = tested on: OVCAR-8 ovarian
# [26] = tested on: TK-10 renal
# [27] = tested on: NCI-H460 lung
# [28] = tested on: EKVX NSCLC
# [29] = tested on: SF-268 CNS
# [30] = tested on: NCI/ADR-RES ovarian
# [31] = tested on: SNB-75 CNS
# [32] = tested on: MDA-MB-231 breast
# [33] = tested on: DU-145 prostate
# [34] = tested on: HS 578T breast
# [35] = tested on: SK-MEL-28 melanoma
# [36] = tested on: A498 renal
# [37] = tested on: IGROV1 ovarian
# [38] = tested on: HOP-62 NSCLC
# [39] = tested on: COLO 205 colon
# [40] = tested on: SK-MEL-2 melanoma
# [41] = tested on: NCI-H226 lung
# [42] = tested on: T-47D breast
# [43] = tested on: CCRF-CEM leukemia
# [44] = tested on: RPMI-8226 leukemia
# [45] = tested on: UO-31 renal
# [46] = tested on: MCF7 breast
# [47] = tested on: HCT-15 colon
# [48] = tested on: NCI-H522 lung
# [49] = tested on: MALME-3M melanoma
# [50] = tested on: A549 NSCLC
# [51] = tested on: M14 melanoma
# [52] = tested on: OVCAR-5 ovarian
# [53] = tested on: HOP-92 NSCLC
# [54] = tested on: SN12C renal
# [55] = tested on: HT29 colon
# [56] = tested on: ACHN renal
# [57] = tested on: OVCAR-4 ovarian
# [58] = tested on: SR leukemia
structure (smiles),measurement,setting,value
CC(=O)OCC1OC(OC2=C(CC=C(C)C)C(=O)c3ccccc3C2=O)C(OC(C)=O)C(OC(C)=O)C1OC(C)=O (stereo unspecified),GI50,[1],2.91 µM
same,TGI,[1],6.62 µM
same,GI50,[2],14.1 µM
same,TGI,[2],27.3 µM
same,GI50,[3],6.28 µM
same,TGI,[3],16.2 µM
same,GI50,[4],6.55 µM
same,TGI,[4],17.7 µM
same,GI50,[5],2.25 µM
same,TGI,[5],6.95 µM
same,GI50,[6],1.93 µM
same,TGI,[6],3.58 µM
same,GI50,[7],12.9 µM
same,TGI,[7],25.9 µM
same,GI50,[8],3.75 µM
same,TGI,[8],10.3 µM
same,GI50,[9],2.84 µM
same,TGI,[9],9.9 µM
same,GI50,[10],4.13 µM
same,TGI,[10],16.9 µM
same,GI50,[11],2.92 µM
same,TGI,[11],11.5 µM
same,GI50,[12],1.6 µM
same,TGI,[12],3.05 µM
same,GI50,[13],8.05 µM
same,TGI,[13],20.5 µM
same,GI50,[14],2.58 µM
same,TGI,[14],8.01 µM
same,GI50,[15],2.5 µM
same,TGI,[15],6.59 µM
same,GI50,[16],2.78 µM
same,TGI,[16],9.18 µM
same,GI50,[17],2.72 µM
same,TGI,[17],> 30.4 µM
same,GI50,[18],2.45 µM
same,TGI,[18],7.15 µM
same,GI50,[19],3.67 µM
same,TGI,[19],12.7 µM
same,GI50,[20],3.76 µM
same,TGI,[20],8.32 µM
same,GI50,[21],2.24 µM
same,TGI,[21],5.15 µM
same,GI50,[22],2.26 µM
same,TGI,[22],4.89 µM
same,GI50,[23],1.97 µM
same,TGI,[23],6.08 µM
same,GI50,[24],2.9 µM
same,TGI,[24],9.09 µM
same,GI50,[25],3.23 µM
same,TGI,[25],11.9 µM
same,GI50,[26],15.1 µM
same,TGI,[26],29.8 µM
same,GI50,[27],4.12 µM
same,TGI,[27],15.5 µM
same,GI50,[28],2.81 µM
same,TGI,[28],11.6 µM
same,GI50,[29],4.23 µM
same,TGI,[29],15.5 µM
same,GI50,[30],3.07 µM
same,TGI,[30],10.2 µM
same,GI50,[31],3.35 µM
same,TGI,[31],11.4 µM
same,GI50,[32],2.63 µM
same,TGI,[32],8.41 µM
same,GI50,[33],10.9 µM
same,TGI,[33],22.9 µM
same,GI50,[34],5.21 µM
same,TGI,[34],> 32.6 µM
same,GI50,[35],5.22 µM
same,TGI,[35],16.9 µM
same,GI50,[36],> 33.6 µM
same,TGI,[36],> 56.9 µM
same,GI50,[37],3.47 µM
same,TGI,[37],8.21 µM
same,GI50,[38],18 µM
same,TGI,[38],33.6 µM
same,GI50,[39],11.5 µM
same,TGI,[39],24.2 µM
same,GI50,[40],2.46 µM
same,TGI,[40],5.67 µM
same,GI50,[41],5.58 µM
same,TGI,[41],28.3 µM
same,GI50,[42],1.93 µM
same,TGI,[42],4.24 µM
same,GI50,[43],3.83 µM
same,TGI,[43],> 100 µM
same,GI50,[44],2.03 µM
same,TGI,[44],5.25 µM
same,GI50,[45],2.68 µM
same,TGI,[45],10.7 µM
same,GI50,[46],2.06 µM
same,TGI,[46],4.73 µM
same,GI50,[47],3.91 µM
same,TGI,[47],18.1 µM
same,GI50,[48],1.88 µM
same,TGI,[48],4.85 µM
same,GI50,[49],4.96 µM
same,TGI,[49],19.6 µM
same,GI50,[50],10.4 µM
same,TGI,[50],40 µM
same,GI50,[51],5.67 µM
same,TGI,[51],18.2 µM
same,GI50,[52],4.57 µM
same,TGI,[52],16.2 µM
same,GI50,[53],1.52 µM
same,TGI,[53],3.77 µM
same,GI50,[54],7.01 µM
same,TGI,[54],23.9 µM
same,GI50,[55],15.3 µM
same,TGI,[55],36.7 µM
same,GI50,[56],3.16 µM
same,TGI,[56],10.1 µM
same,GI50,[57],2.31 µM
same,TGI,[57],6.7 µM
same,GI50,[58],3.55 µM
same,TGI,[58],51.1 µM
